According to ChEMBL document CHEMBL4665628, “Pyranocarbazole derivatives as potent anti-cancer agents triggering tubulin polymerization stabilization induced activation of caspase-dependent apoptosis and downregulation of Akt/mTOR in breast cancer cells” (Eur J Med Chem, 2019):
Counter-ions that a name gives are not always drawn. The source made the active and inactive calls. The rule behind the calls is not given here.

Tests used:
HEK293 = assay: cells; type: ADME, cell-based; settings: Homo sapiens, HEK293, 24 h
Description: Cytotoxicity against HEK293 cells assessed as cell growth inhibition measured after 24 hrs by MTT assay

MDA-MB-231 [1] = assay: cells; type: functional, cell-based; settings: Homo sapiens, MDA-MB-231, 24 h
Description: Anticancer activity against human MDA-MB-231 cells assessed as cell growth inhibition measured after 24 hrs by MTT assay

HepG2 = assay: cells; type: functional, cell-based; settings: Homo sapiens, HepG2, 24 h
Description: Anticancer activity against human HepG2 cells assessed as cell growth inhibition measured after 24 hrs by MTT assay

PC-3 = assay: cells; type: functional, cell-based; settings: Homo sapiens, PC-3, 24 h
Description: Anticancer activity against human PC-3 cells assessed as cell growth inhibition measured after 24 hrs by MTT assay

MCF7 = assay: cells; type: functional, cell-based; settings: Homo sapiens, MCF7, 24 h
Description: Anticancer activity against human MCF7 cells assessed as cell growth inhibition measured after 24 hrs by MTT assay

DU-145 = assay: cells; type: functional, cell-based; settings: Homo sapiens, DU-145, 24 h
Description: Anticancer activity against human DU-145 cells assessed as cell growth inhibition measured after 24 hrs by MTT assay

A549 = assay: cells; type: functional, cell-based; settings: Homo sapiens, A549, 24 h
Description: Anticancer activity against human A549 cells assessed as cell growth inhibition measured after 24 hrs by MTT assay

DLD-1 = assay: cells; type: functional, cell-based; settings: Homo sapiens, DLD-1, 24 h
Description: Anticancer activity against human DLD-1 cells assessed as cell growth inhibition measured after 24 hrs by MTT assay

MDA-MB-231 [2] = assay: Induction of mitochondrial membrane depolarization in human MDA-MB-231 cells at 10 uM measured after 24 hrs by JC-1 staining based flow cytometry analysis (reference value: 0.89 to 3.24 %); type: functional
DNA = assay: Binding affinity to DNA (unknown origin) at 0.1 to 0.2 mM by agarose gel electrophoresis; type: nucleic-acid assay; settings: dose mM 0.1-0.2
Tubulin (Homo sapiens) = Tubulin (Homo sapiens) (UniProt P68371+Q9H4B7+P0DPH7+P68366+Q13509+Q71U36+P04350+Q3ZCM7+P07437+P68363+Q9BQE3+Q6PEY2+Q13885+Q9BVA1+Q9BUF5); assay: Inhibition of tubulin (unknown origin) polymerization assessed as stabilization of microtubules at10 uM measured up to 60 mins in presence of GTP; type: protein-complex assay; settings: dose 10.0 µM, time min <=60

SMILES	IC50 (HEK293) [µM]	IC50 (MDA-MB-231 [1]) [µM]	IC50 (HepG2) [µM]	IC50 (PC-3) [µM]	IC50 (MCF7) [µM]	IC50 (DU-145) [µM]	IC50 (A549) [µM]	IC50 (DLD-1) [µM]	Activity (MDA-MB-231 [2]) [%]	Activity (DNA)	Activity (Tubulin (Homo sapiens))
COc1cc2c3cc(C)c4c(c3n(Cc3ccccc3)c2cc1OC)C=CC(C)(C)O4	> 100	28.5	47.1	29.2	71.9	> 100	80.1	42.1	–	–	–
N#CC(C#N)=NNc1cccc(Cl)c1 [CARBONYL CYANIDE M-CHLOROPHENYLHYDRAZONE]	–	–	–	–	–	–	–	–	12.75	–	–
COc1ccc2c(c1)c1cc(C)c3c(c1n2Cc1cccc(C)c1)C=CC(C)(C)O3	> 100	46.5	34.6	35.5	48.2	55.7	35.7	73.1	–	–	–
COc1cccc(Cn2c3cc(OC)c(OC)cc3c3cc(C=O)c4c(c32)C=CC(C)(C)O4)c1	–	> 100	> 100	77.2	> 100	> 100	> 100	> 100	–	–	–
COc1cc2c3cc(C)c4c(c3n(Cc3cccc(C)c3)c2cc1OC)C=CC(C)(C)O4	> 100	28	9.6	14.1	64.9	> 100	96.6	73.4	–	–	–
CC/C(=C(\c1ccccc1)c1ccc(OCCN(C)C)cc1)c1ccccc1 [TAMOXIFEN CITRATE]	27.3	12.8	–	11.7	6.2	11.2	–	–	–	–	–
C#CCn1c2ccc(OC)cc2c2cc(C)c3c(c21)C=CC(C)(C)O3	> 100	52.4	> 100	> 100	> 100	> 100	> 100	50.1	–	–	–
COc1ccc2c(c1)c1cc(C)c3c(c1n2Cc1cc(F)ccc1F)C=CC(C)(C)O3	> 100	> 100	9.1	33.1	51.8	> 100	53.3	54.2	–	–	–
COc1cc2[nH]c3c4c(c(C=O)cc3c2cc1OC)OC(C)(C)C=C4	> 100	8.3	35.5	27.3	> 100	70	33.6	> 100	–	–	–
COc1cccc(Cn2c3cc(OC)c(OC)cc3c3cc(C)c4c(c32)C=CC(C)(C)O4)c1	–	33.4	41.8	20	65.6	> 100	29.1	56.1	–	–	–
COc1ccc2c(c1)c1cc(C)c3c(c1n2Cc1ccccc1Br)C=CC(C)(C)O3	> 100	> 100	16	15.2	59.1	> 100	56.5	> 100	–	–	–
COc1cc2c3cc(C)c4c(c3n(C/C(I)=C\I)c2cc1OC)C=CC(C)(C)O4	> 100	4.4	15.5	9.6	44.9	47.6	71.7	8.5	–	–	–
COc1cccc2c1C(=O)c1c(O)c3c(c(O)c1C2=O)C[C@@](O)(C(=O)CO)C[C@@H]3O[C@H]1C[C@H](N)[C@H](O)[C@H](C)O1 [DOXORUBICIN]	–	–	8	–	–	–	–	10.2	–	Active	–
COc1cc2c3cc(C=O)c4c(c3n(Cc3cccc(Cl)c3)c2cc1OC)C=CC(C)(C)O4	–	> 100	> 100	70.5	72.4	> 100	> 100	> 100	–	–	–
C#CCn1c2cc(OC)c(OC)cc2c2cc(C)c3c(c21)C=CC(C)(C)O3	> 100	9.7	38.8	76.1	> 100	> 100	51.5	> 100	–	–	–
COc1ccc2[nH]c3c4c(c(C=O)cc3c2c1)OC(C)(C)C=C4 [CLAULANSINE F]	2.5	2.6	33.3	56.4	3.9	> 100	> 100	54.7	–	–	–
COc1ccc2c(c1)c1cc(C)c3c(c1n2Cc1ccccc1)C=CC(C)(C)O3	> 100	46.5	41.8	74.9	> 100	> 100	64	52.8	–	–	–
COc1ccc2c(c1)c1cc(C=O)c3c(c1n2Cc1ccccc1)C=CC(C)(C)O3	–	30.7	42.4	32.9	32.8	> 100	36.6	> 100	–	–	–
CC(=O)O[C@H]1C(=O)[C@@]2(C)[C@H]([C@H](OC(=O)c3ccccc3)[C@]3(O)C[C@H](OC(=O)[C@H](O)[C@@H](NC(=O)c4ccccc4)c4ccccc4)C(C)=C1C3(C)C)[C@]1(OC(C)=O)CO[C@@H]1C[C@@H]2O	–	–	–	–	–	–	–	–	–	–	Active
C=CCn1c2cc(OC)c(OC)cc2c2cc(C)c3c(c21)C=CC(C)(C)O3	> 100	36.5	42.9	> 100	> 100	> 100	> 100	75.3	–	–	–
COc1cc2c3cc(C)c4c(c3n(Cc3ccccc3Br)c2cc1OC)C=CC(C)(C)O4	> 100	36.7	8.2	9.3	70.7	36.6	24.4	35.9	–	–	–
COc1ccc2c(c1)c1cc(C)c3c(c1n2Cc1ccc(F)cc1F)C=CC(C)(C)O3	> 100	23.2	36.8	13.3	> 100	> 100	88	34.1	–	–	–
COc1cc2c3cc(C)c4c(c3n(Cc3cc(Cl)ccc3Cl)c2cc1OC)C=CC(C)(C)O4	–	19.7	33.8	7.4	29.4	> 100	14.8	35.4	–	–	–
